Measured values as given in PMC3176295 (Bioorganic & medicinal chemistry, 2011).

Key:
EphE (Rv3670) = EphE (Rv3670) (Mycobacterium tuberculosis, UniProt O69638); assay: EphE inhibition, fluorescent assay with Epoxy Fluor 7; format: biochemical, M. tuberculosis; conditions: for inhibition at 0.01 µM: read-out: % EphE Inhibition at 10 nM, inhibitor 10 nM, substrate 5 μM, duplicate; for EphE activity in words: 10 nM; for % EphE Inhibition at 10 nM: inhibitor 10 nM, substrate 5 μM, duplicate
M. tuberculosis H37Rv = assay: MIC determination by microbroth dilution against M. tuberculosis; format: cell-based, Mycobacterium tuberculosis; conditions: for antitubercular activity / MIC in words: M. tuberculosis
EphB (Rv1938) = EphB (Rv1938) (Mycobacterium tuberculosis, UniProt I6YC03); format: biochemical; conditions: 10 nM
EphB (Rv1938), sequence (I6YC03 whole entry): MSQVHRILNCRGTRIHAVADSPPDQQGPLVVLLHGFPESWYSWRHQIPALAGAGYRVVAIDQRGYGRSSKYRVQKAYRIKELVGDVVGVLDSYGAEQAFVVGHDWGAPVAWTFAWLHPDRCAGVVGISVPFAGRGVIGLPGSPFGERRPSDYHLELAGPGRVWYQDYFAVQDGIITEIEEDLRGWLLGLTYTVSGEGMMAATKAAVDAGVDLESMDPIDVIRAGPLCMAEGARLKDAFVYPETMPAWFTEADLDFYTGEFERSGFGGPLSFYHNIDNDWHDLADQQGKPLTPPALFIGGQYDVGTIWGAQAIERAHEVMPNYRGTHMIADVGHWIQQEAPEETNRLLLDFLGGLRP

Structure (SMILES): O=C(Nc1ccc(F)c(F)c1F)NC1C2CC3CC(C2)CC1C3 (stereo not shown) [Compound 1, 1-(2-Adamantyl)-3-(2,3,4-trifluorophenyl)urea]
- inhibition at 0.01 µM (EphE (Rv3670)): > 70%

Structure (SMILES): O=C(NCC12CC3CC(CC(C3)C1)C2)Nc1ccc(F)c(F)c1F [Compound 3, 1-(1-(1-Adamantyl)methyl)-3-(2,3,4-trifluorophenyl)urea]
- antitubercular activity / MIC in words (M. tuberculosis H37Rv): good MIC values
- EphE activity in words (EphE (Rv3670)): good EphE activity
- % EphE Inhibition at 10 nM (EphE (Rv3670)): > 70%
- EphB inhibition in words (EphB (Rv1938)): relatively poor EphB inhibition

Structure (SMILES): N#Cc1ccc(NC(=O)NC2C3CC4CC(C3)CC2C4)cc1 (stereo not shown) [Compound 10, 1-(2-Adamantyl)-3-(4-cyanophenyl)urea]
- antitubercular activity / MIC in words (M. tuberculosis H37Rv): good MIC values
- EphE activity in words (EphE (Rv3670)): good EphE activity
- EphB inhibition in words (EphB (Rv1938)): relatively poor EphB inhibition

Structure (SMILES): O=C(NCCc1ccccc1)NC1C2CC3CC(C2)CC1C3 (stereo not shown) [Compound 11, 1-(2-Adamantyl)-3-phenethylurea]
- antitubercular activity / MIC in words (M. tuberculosis H37Rv): good MIC values
- EphE activity in words (EphE (Rv3670)): good EphE activity
- inhibition at 0.01 µM (EphE (Rv3670)): > 70%
- EphB inhibition in words (EphB (Rv1938)): relatively poor EphB inhibition

Structure (SMILES): CCCCCCNC(=O)NC1C2CC3CC(C2)CC1C3 (stereo not shown) [Compound 20, 1-(2-Adamantyl)-3-hexylurea]
- antitubercular activity / MIC in words (M. tuberculosis H37Rv): good MIC values
- EphE activity in words (EphE (Rv3670)): good EphE activity
- % EphE Inhibition at 10 nM (EphE (Rv3670)): > 70%
- EphB inhibition in words (EphB (Rv1938)): relatively poor EphB inhibition

Structure (SMILES): Cc1ccc(NC(=O)NCC23CC4CC(CC(C4)C2)C3)cc1Cl [Compound 22, 1-(1-(1-Adamantyl)methyl)-3-(3-chloro-4-methylphenyl)urea]
- antitubercular activity / MIC in words (M. tuberculosis H37Rv): good MIC values
- EphE activity in words (EphE (Rv3670)): good EphE activity
- EphB inhibition in words (EphB (Rv1938)): relatively poor EphB inhibition

Structure (SMILES): Cc1ccc(NC(=O)NC2CCCCCCC2)cc1Cl [Compound 24, 1-(3-Chloro-4-methylphenyl)-3-cyclooctylurea]
- % EphE Inhibition at 10 nM (EphE (Rv3670)): > 70%

Structure (SMILES): Fc1ccc(NC(=S)NC2C3CC4CC(C3)CC2C4)c(F)c1F (stereo not shown) [Compound 31, 1-(2-Adamantyl)-3-(2,3,4-trifluorophenyl)thiourea]
- fold decrease in MIC activity (M. tuberculosis H37Rv; thiourea versus urea 1): 80 fold

Structure (SMILES): O=C(Nc1ccc(F)c(F)c1F)OC1C2CC3CC(C2)CC1C3 (stereo not shown) [Compound 32, 2-Adamantyl 2,3,4-trifluorophenylcarbamate]
- additional fold decrease in anti-M. tuberculosis potency (M. tuberculosis H37Rv; carbamate, additional to the decrease of thiourea 31): 10 fold

Structure (SMILES): COc1ccc(NC(=O)NC2C3CC4CC(C3)CC2C4)cc1 (stereo not shown) [Compound 35, 1-(2-Adamantyl)-3-(4-methoxyphenyl)urea]
- antitubercular activity / MIC in words (M. tuberculosis H37Rv): good antitubercular activity

Structure (SMILES): COC(=O)c1ccc(NC(=O)NC23CC4CC(CC(C4)C2)C3)cc1O [Compound 36, Methyl 4-(3-(1-adamantyl)ureido)-2-hydroxybenzoate]
- antitubercular activity / MIC in words (M. tuberculosis H37Rv): good antitubercular activity

Structure (SMILES): CC(C)CCOc1ccc(NC(=O)Nc2ccc(OCCC(C)C)cc2)cc1 [Compound 41, 1,3-Bis(4-(isopentyloxy)phenyl)urea]
- antitubercular activity / MIC in words (M. tuberculosis H37Rv): inactive
